Measurements taken from patent US11236055B2 (Venenum Biodesign, LLC, priority 2016, dated 2022).

Assays:
[1] = target: T1, human TGR5 receptor (Homo sapiens, UniProt Q8TDU6); assay: Human TGR5 cAMP production assay; type: cell-based; conditions: human TGR5, luminescent cAMP assay; coded A-D; read-out: Human TGR5 Lum. cAMP Activity (EC50)
T1 construct: host or cells: CHO-K1 (hTGR5-CHO cells)
T1 sequence (Q8TDU6 1-330): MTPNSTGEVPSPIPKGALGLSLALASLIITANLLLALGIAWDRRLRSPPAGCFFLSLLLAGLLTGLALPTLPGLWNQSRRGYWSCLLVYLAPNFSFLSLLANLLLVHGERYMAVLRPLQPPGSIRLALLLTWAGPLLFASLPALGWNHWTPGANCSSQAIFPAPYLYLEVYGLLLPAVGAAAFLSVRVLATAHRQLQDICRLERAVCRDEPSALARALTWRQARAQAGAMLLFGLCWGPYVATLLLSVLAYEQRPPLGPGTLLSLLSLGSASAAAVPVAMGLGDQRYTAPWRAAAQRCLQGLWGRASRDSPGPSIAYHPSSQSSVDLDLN
Description: Human TGR5 cAMP Production Assay
We evaluated the Compounds of the present invention for their ability to induce cAMP production using CHO-K1 cells overexpressing the human TGR5 receptor. CHO-K1 cells stably expressing human TGR5 receptor (accession number NM_001077194.1 (hTGR5) (i.e., hTGR5-CHO cells) were purchased from DiscoveRx Corporation (Fremont, Calif.). hTGR5-CHO cells were grown in Ham's F-12 media supplemented with 10% Fetal Bovine Serum, 1% Penicillin-Streptomycin, 2 mM L-Alanine L-Glutamine (Glutamax), and 800 μg/mL Geneticin selection. The cAMP production assay was performed using DiscoveRx's cAMP XS+ kit (Catalog No. 90-0075XL) following the manufacturer's recommended protocol. Briefly, hTGR5-CHO cells were harvested using non-enzymatic cell dissociation buffer (Sigma-Aldrich, St. Louis, Mo.) and 1×10^6 cells were combined in Phosphate-Buffered Saline (PBS) to a final volume of 496 μL to which 4 μL of 125 mM IBMX (Sigma-Aldrich, St. Louis, Mo.) was added. 500 μL of cAMP antibody solution was added to the harvested cells and incubated at room temperature for 20 min.
Test compounds were serially diluted (half-log dilutions) in DMSO and then further diluted 1:50 in PBS, 10 mM HEPES buffer. 2 μL of serially diluted compound was added to a 384-well low volume plate (Greiner; cat #784075) and centrifuged briefly. 2 μL of the cell/cAMP antibody mixture was then added to each compound-containing well and allowed to incubate at room temperature for one hour. Following incubation, the XS+ kits' ED/Lysis/CL Substrate Working Solution was prepared following the manufacturer's recommended protocol and 4 μL was added to each well of the plate. The plate was then incubated for one hour at room temperature. Following incubation, 4 μL of Enzyme Acceptor reagent was added to the plate and allowed to incubate overnight at room temperature. Luminescent signal was then detected using the Viewlux instrument (Perkin-Elmer, Waltham, Mass.).
(§1) In Table 33, EC50 values for both human and mouse cells were determined according to the TGR5 cAMP assays described above.

[2] = target: T2, mouse TGR5 receptor (Mus musculus, UniProt Q80SS6); assay: Mouse TGR5 cAMP production assay (HTRF, Cisbio cAMP HiRange); type: cell-based; conditions: HEK293-EBNA cells overexpressing mouse TGR5, HTRF cAMP HiRange; coded A-D
T2 construct: expressed in transfected cells; host or cells: HEK293-EBNA (293 c18, ATCC CRL10852), Hygromycin B selection
T2 sequence (Q80SS6 1-329): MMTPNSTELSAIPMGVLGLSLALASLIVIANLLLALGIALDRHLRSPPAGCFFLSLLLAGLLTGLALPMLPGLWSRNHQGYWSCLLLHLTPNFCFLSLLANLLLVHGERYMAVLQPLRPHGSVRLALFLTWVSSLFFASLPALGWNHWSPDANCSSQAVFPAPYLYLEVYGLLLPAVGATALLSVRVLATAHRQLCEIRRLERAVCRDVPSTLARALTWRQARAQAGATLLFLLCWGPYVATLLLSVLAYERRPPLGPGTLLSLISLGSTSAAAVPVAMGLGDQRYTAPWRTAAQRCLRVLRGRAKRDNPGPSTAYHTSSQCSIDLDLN
Description: Mouse TGR5 cAMP Production Assay
We evaluated compounds of the present invention for their ability to induce cAMP production in HEK-EBNA cells overexpressing the mouse TGR5 receptor. Human embryonic kidney cells (HEK293-EBNA) stably expressing mouse TGR5 receptor were established using the following procedure. Specifically, a commercially-obtained gene encoding mouse TGR5 (accession number BC116914) from Thermo Scientific (Waltham, Mass.) was cloned into an episomal expression vector. The resulting expression plasmid was then transfected into 293 c18 (ATCC® CRL10852™) cells, which express the Epstein-Barr virus nuclear antigen EBNA1 and can support the replication of episomal vectors. Selection for the plasmid was maintained with Hygromycin B. Cells were cultured and maintained in DMEM (Sigma; cat #6429) supplemented with 10% Fetal Bovine Serum, 1% penicillin/streptomycin, 2 mM L-alanine L-glutamine (GlutaMax), and 250 μg/mL Hygromycin.
2. HTRF cAMP Production Assay
In this second cAMP production assay, the cAMP production was measured in 384-well low volume plates (Greiner; cat #784075) using the Cisbio™ cAMP HiRange HTRF Assay Kit (Cisbio) according to the manufacturer's protocol.
Briefly, compounds were initially diluted in 100% DMSO (12-point serial dilution by half logs) in a 96-well plate and then were further diluted 1:50 in PBS containing 10 mM HEPES. 5 μL were transferred to the 384-well assay plate in duplicate. HEK293-EBNA cells stably overexpressing mouse TGR5 were harvested using non-enzymatic cell dissociation buffer (Sigma), spun down, then resuspended in serum-free DMEM with 500 μM IBMX at a density of 500,000 cells/mL. 5 μL of cell suspension was transferred to each well of the 384-well assay plate already containing compound. The plate was covered and incubated at room temperature for 1 hour. The d2-cAMP and anti-cAMP Ab-cryptate stock solutions were prepared as per kit instructions. Then 5 μL of each conjugate (d2 and cryptate) were added to each well of the assay plate. The plate was covered and incubated at room temperature for 1 hour. The plate was read on an Envision™ plate reader (Perkin Elmer).
as §1

EC50 [1] [nM]	EC50 [2] [nM]	SMILES
1000 to 30000	1000 to 30000	Cc1cnccc1-c1cccc([C@H](C)N(CCCC(=O)N(CC(=O)O)CC(=O)O)S(=O)(=O)c2cccc(Cl)c2C)c1 [Compound 21AK, (S)-2,2′-((4-(3-chloro-2-methyl-N-(1-(3-(3-methylpyridin-4-yl)phenyl)ethyl)phenylsulfonamido)butanoyl)azanediyl)diacetic acid]
< 100	100 to 999	CC[C@H](NS(=O)(=O)c1cccc(C(F)(F)F)c1)c1cccc(-c2ccncc2C)c1 [Compound 5AY, (S)-N-(1-(3-(3-methylpyridin-4-yl)phenyl)propyl)-3-(trifluoromethyl)benzenesulfonamide]
< 100	100 to 999	Cc1cnccc1-c1cccc([C@H](C)N(CCCC(=O)NCCNC(=O)[C@@H](N)CS(=O)(=O)O)S(=O)(=O)c2ccccc2C(F)(F)F)c1 [Compound 31AF, (R)-2-amino-3-((2-(4-(N-((S)-1-(3-(3-methylpyridin-4-yl)phenyl)ethyl)-2-(trifluoromethyl)phenylsulfonamido)butanamido)ethyl)amino)-3-oxopropane-1-sulfonic acid]
< 100	100 to 999	Cc1cnccc1-c1cccc([C@H](C)N(CCCC(=O)NCCOCCOCCOCCC(=O)O)S(=O)(=O)c2cccc(Cl)c2C)c1 [Compound 20AU, (S)-3-((3-chloro-2-methylphenyl)sulfonyl)-2-(3-(3-methylpyridin-4-yl)phenyl)-7-oxo-11,14,17-trioxa-3,8-diazaicosan-20-oic acid]
< 100	100 to 999	Cc1cnccc1-c1cccc([C@H](C)N(CCCC(=O)N2CCC[C@H]2C(=O)O)S(=O)(=O)c2cccc(Cl)c2C)c1 [Compound 21AJ, (S)-1-(4-(3-chloro-2-methyl-N-((S)-1-(3-(3-methylpyridin-4-yl)phenyl)ethyl)phenylsulfonamido)butanoyl)pyrrolidine-2-carboxylic acid]
100 to 999	1000 to 30000	COc1cnccc1-c1cccc(CCNS(=O)(=O)c2ccccc2C(F)(F)F)c1 [Compound 1CF]
< 100	1000 to 30000	COc1cnccc1-c1cccc(C2CCCN2S(=O)(=O)c2ccccc2C(F)(F)F)c1 (centres unmarked) [Compound 40AA, 3-methoxy-4-(3-(1-((2-(trifluoromethyl)phenyl)sulfonyl)pyrrolidin-2-yl)phenyl)pyridine]
100 to 999	100 to 999	Cc1cnccc1-c1cccc(C(C)N(CCCC(=O)NCCSO)S(=O)(=O)c2cccc(C(F)(F)F)c2)c1 (centres unmarked) [Compound 20BD, N-(2-(hydroxythio)ethyl)-4-(N-(1-(3-(3-methylpyridin-4-yl)phenyl)ethyl)-3-(trifluoromethyl)phenylsulfonamido)butanamide]
100 to 999	1000 to 30000	Cc1cnsc1-c1cccc([C@H](C)N(CCCC(=O)NCCS(=O)(=O)O)S(=O)(=O)c2cccc(Cl)c2C)c1 [Compound 20BP, (S)-2-(4-(3-chloro-2-methyl-N-(1-(3-(4-methylisothiazol-5-yl)phenyl)ethyl)phenylsulfonamido)butanamido)ethanesulfonic acid]
< 100	< 100	CCc1cnccc1-c1cccc([C@H](C)N(CCCC(=O)NCS(=O)(=O)O)S(=O)(=O)c2ccccc2C(F)(F)F)c1 [Compound 20BE, (S)-(4-(N-(1-(3-(3-ethylpyridin-4-yl)phenyl)ethyl)-2-(trifluoromethyl)phenylsulfonamido)butanamido)methanesulfonic acid]
100 to 999	100 to 999	Cc1cnccc1-c1cccc(C(CCCCNC(=O)NCCS(=O)(=O)O)NS(=O)(=O)c2ccccc2C(F)(F)F)c1 (centres unmarked) [Compound 28AG, 2-(3-(5-(3-(3-methylpyridin-4-yl)phenyl)-5-(2-(trifluoromethyl)phenylsulfonamido)pentyl)ureido)ethanesulfonic acid]
< 100	< 100	CCc1cnccc1-c1cccc(C(C)(C)NS(=O)(=O)c2ccccc2[N+](=O)[O-])c1 [Compound 5AO, N-(2-(3-(3-ethylpyridin-4-yl)phenyl)propan-2-yl)-2-nitrobenzenesulfonamide]
100 to 999	< 100	Cc1cnccc1-c1cccc(C2CN(C(=O)CCC(=O)O)CCN2S(=O)(=O)c2ccccc2C)c1 (centres unmarked) [Compound 46AI, 4-(3-(3-(3-methylpyridin-4-yl)phenyl)-4-(o-tolylsulfonyl)piperazin-1-yl)-4-oxobutanoic acid]
< 100	< 100	Cc1cnccc1-c1cccc([C@H](C)N(CCCC(=O)NCCS(=O)(=O)NCC(=O)O)S(=O)(=O)c2ccccc2C(F)(F)F)c1 [Compound 20BJ]
< 100	100 to 999	Cc1cnccc1-c1cccc([C@H](C)N(CCCCC(=O)NCCOCCN)S(=O)(=O)c2cccc(Cl)c2C)c1 [Compound 20AT, (S)-N-(2-(2-aminoethoxy)ethyl)-5-(3-chloro-2-methyl-N-(1-(3-(3-methylpyridin-4-yl)phenyl)ethyl)phenylsulfonamido)pentanamide]
< 100	< 100	Cc1cnccc1-c1cccc([C@H](C)N(CCCCC(=O)NCCOCCNS(=O)(=O)CC(=O)O)S(=O)(=O)c2cccc(Cl)c2C)c1 [Compound 26AD]
< 100	100 to 999	COc1cnccc1-c1cccc(C(C)(C)NS(=O)(=O)c2ccc(Cl)cc2C(F)(F)F)c1 [Compound 2BF]
100 to 999	< 100	Cc1cnccc1-c1cccc(C2CN(C(=O)CS(=O)(=O)O)CCN2S(=O)(=O)c2ccccc2C(F)(F)F)c1 (centres unmarked) [Compound 49AG, 2-(3-(3-(3-methylpyridin-4-yl)phenyl)-4-((2-(trifluoromethyl)phenyl)sulfonyl)piperazin-1-yl)-2-oxoethanesulfonic acid]
100 to 999	100 to 999	Cc1cnccc1-c1cccc(C(CCCCC#N)NS(=O)(=O)c2cccc(Cl)c2C)c1 (centres unmarked) [Compound 35, 3-chloro-N-(5-cyano-1-(3-(3-methylpyridin-4-yl)phenyl)pentyl)-2-methylbenzenesulfonamide]
